Patent US7414173B1, “Isolated nucleic acid molecules encoding orally active androctonus amoreuxi pesticidal biopeptides” (E.I. du Pont de Nemours and Company, priority 2002, dated 2008)

B1: Ts7: polypeptide set forth in SEQ ID NO:22 and 24, identified from a Centruroides vittatus telsons cDNA library (protein)
chain 1: MKFFLIVSLAIMSCFMEMKEVYAGTKGNFPVDFQGIFYECIVYNRCERDCKLHGSSYGYCYAGVCYCEGLADEDKYFLGM
chain 2: GTKGNFPVDFQGIFYECIVYNRCERDCKLHGSSYGYCYAGVCYCEGLADEDKYFLGM

Columns and labels:
[1] = test system: corn plant hopper Perigrinus maidis; experiment: Screening of Androctonus amoreuxi venom fractions for Homopteran activity; format: in vivo; settings: HPLC fractions of venom
Protocol: This assay can be used for a variety of homopterans including, but not limited to, Myzus persicae and Perigrinus maidis. The assay involves trapping the sample between two layers of maximally stretched parafilm which act as a sachet on top of a small vessel containing the insect of choice.
The assay was prepared as follows: 1 cm diameter polystyrene tubing was cut into 15 mm lengths. One end of the tube was then capped with a fine mesh screen. Five insects were then added to the chamber after which the first layer of parafilm was stretched over the remaining open end. 25 μl of sample (polypeptide in a 5% sucrose solution containing McCormick green food coloring) was then placed on top of the stretched parafilm. A second layer of parafilm was then stretched by hand and placed over the sample. […] The assay tubes were monitored for insect reproduction and death on a 24 hour basis and compared to a 5% sucrose control.
Initial screening of five minute fractions of the venom from Androctonus amoreuxi indicated activity against the corn plant hopper Perigrinus maidis. […] Sufficient quantities of this purified protein were collected to allow confirmation of activity and to initiate protein sequencing by Edmund degradation as described in Example 2. The mature sequence was determined to be that indicated in SEQ ID NO:20. […]

[2] = test system: embryonic neuronal cultures of the American cockroach Periplaneta americana; experiment: Fluorescence imaging ratiometric assay; format: cell-based; settings: Fluo-4 AM loaded neuronal cells
Text: Embryonic neuronal cultures of the American cockroach Periplaneta americana were established following the method of Beadle and Lees (See Beadle D. J. and Lees G., Chapter 5 in Cell Culture Approaches to Invertebrate Neuroscience, Beadle, D. J., Lees, G. and Kater, S. B. (eds.) Academic Press, New York 1988) with minor modification. Briefly, 24-day old oothecae were collected, surface-sterilized and cut open one third below the dorsal midline. The heads were then removed and placed in Schneider's Drosophila medium. Using fine forceps 32 brains were individually removed and placed in a small glass vial containing 790 μl of ‘5+4’ medium. […]
Cells were rinsed in standard physiological saline having the following composition (mM): NaCl 190; CaCl2 9; KCl 3.1; probenicid 1; Tris buffer 10; pH 7.2. […] Individual wells from the 96-well plate were sequentially excited with light at 495 nm and the emitted fluorescence at 530 nm detected using a Hamamatsu ORCA ER digital camera.
Acquisition control, image processing and image analysis were conducted using Universal Imaging Corporation's MetaMorph™ imaging software. […] Individual cells were separated and identified based on meeting designated morphometric criteria for total size and shape as previously determined experimentally for this cell type. […]

[3] = test system: Myzus persicae (Green Peach Aphid); experiment: Aphid bioassay on transgenic Arabidopsis thaliana events; format: in vivo; settings: 35S promoter, versus controls
Text: cDNAs encoding potential sodium channel neurotoxins were identified from sequence data derived from a cDNA library of Centruroides vittatus telsons. […] Full length genes were PCR amplified with oligonucleotide primers introducing restriction enzyme sites at the 5′ and 3′ ends of the gene. The PCR products were TOPO-cloned into pCR2.1 (Invitrogen Co.) and the sequence was confirmed. The resulting constructs were then cloned into a binary vector between the Cauliflower mosaic virus 35S promoter and the NOS termination signal. The binary vector also contained a selection marker cassette including the Cauliflower mosaic 35S promoter, the BAR gene, and NOS terminator.
Binary constructs were electroporated into Agrobacterium tumefaciens strain C58. Transformed Agrobacterium cultures were grown in YM media for 2 days at 28° C. to an OD600 of approximately 1.0. Cells were pelleted by centrifugation and resuspended at the original culture volume in 5% sucrose with 0.05% Silwet L-77. The Agrobacterium slurry was sprinkled onto the inflorescences of flowering Arabidopsis thaliana (Landberg) plants using a 10-25 ml pipette. […]
Bioassays were performed on individual transformation events enclosed within plastic tubes with a fine mesh screen at the top to confine the aphids. […] Plants were scored for total number of adult aphids and nymphs at various intervals post infestation.

Molecule | activity against the corn plant hopper Perigrinus maidis (Homopteran activity) [1] | changes in Fluo-4 fluorescence (intracellular free calcium) [2] | aphid resistance (total number of adult aphids and nymphs) [3]
Aam1 (ADVPGNYPLDSSDNTYLCAPLGDNPDCIKICQKHGVDYGYCYAFQCWCEFLKDENVKV) | Homopteran activity was then found to be associated | changes in fluorescence characteristic of a sodium channel agonist | –
B1 | – | – | greater degree of aphid resistance than controls
